# PubChem BioAssay (NCI)
#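 Each compound was tested at five concentrations against cells in 96-well plates for 48 hours. The concentration for 50% growth inhibition is given as GI50. TGI: concentration producing complete growth inhibition.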
# Experiments:
# Assay in all cases: DTP human tumour cell line panel, 48 h
# HL-60(TB) leukemia = test system: HL-60(TB) leukemia
# SW-620 colon = test system: SW-620 colon
# M14 melanoma = test system: M14 melanoma
# UACC-62 melanoma = test system: UACC-62 melanoma
# A498 renal = test system: A498 renal
# UACC-257 melanoma = test system: UACC-257 melanoma
# SNB-19 CNS = test system: SNB-19 CNS
# HT29 colon = test system: HT29 colon
# OVCAR-8 ovarian = test system: OVCAR-8 ovarian
# MDA-MB-231 breast = test system: MDA-MB-231 breast
# SK-MEL-5 melanoma = test system: SK-MEL-5 melanoma
# SR leukemia = test system: SR leukemia
# OVCAR-5 ovarian = test system: OVCAR-5 ovarian
# SK-MEL-2 melanoma = test system: SK-MEL-2 melanoma
# A549 NSCLC = test system: A549 NSCLC
# HCC-2998 colon = test system: HCC-2998 colon
# LOX IMVI melanoma = test system: LOX IMVI melanoma
# HCT-116 colon = test system: HCT-116 colon
# MOLT-4 leukemia = test system: MOLT-4 leukemia
# HOP-62 NSCLC = test system: HOP-62 NSCLC
# BT-549 breast = test system: BT-549 breast
# NCI-H460 lung = test system: NCI-H460 lung
# RXF 393 renal = test system: RXF 393 renal
# COLO 205 colon = test system: COLO 205 colon
# T-47D breast = test system: T-47D breast
# KM12 colon = test system: KM12 colon
# SNB-75 CNS = test system: SNB-75 CNS
# ACHN renal = test system: ACHN renal
# HCT-15 colon = test system: HCT-15 colon
# 786-0 renal = test system: 786-0 renal
# MCF7 breast = test system: MCF7 breast
# MALME-3M melanoma = test system: MALME-3M melanoma
# SK-MEL-28 melanoma = test system: SK-MEL-28 melanoma
# RPMI-8226 leukemia = test system: RPMI-8226 leukemia
# TK-10 renal = test system: TK-10 renal
# NCI-H226 lung = test system: NCI-H226 lung
# SN12C renal = test system: SN12C renal
# MDA-MB-435 = test system: MDA-MB-435
# NCI-H522 lung = test system: NCI-H522 lung
# CAKI-1 renal = test system: CAKI-1 renal
# UO-31 renal = test system: UO-31 renal
# K-562 leukemia = test system: K-562 leukemia
# NCI-H23 lung = test system: NCI-H23 lung
# OVCAR-3 ovarian = test system: OVCAR-3 ovarian
# OVCAR-4 ovarian = test system: OVCAR-4 ovarian
# PC-3 prostate = test system: PC-3 prostate
# HS 578T breast = test system: HS 578T breast
# SF-268 CNS = test system: SF-268 CNS
# U251 CNS = test system: U251 CNS
# NCI/ADR-RES ovarian = test system: NCI/ADR-RES ovarian
# SF-539 CNS = test system: SF-539 CNS
# DU-145 prostate = test system: DU-145 prostate
# HOP-92 NSCLC = test system: HOP-92 NSCLC
# EKVX NSCLC = test system: EKVX NSCLC
# SF-295 CNS = test system: SF-295 CNS
# CCRF-CEM leukemia = test system: CCRF-CEM leukemia
# IGROV1 ovarian = test system: IGROV1 ovarian
compound,measurement,setting,value
CC(C)(C)c1ccc(NS(=O)(=O)c2ccc3nc(NC(=O)c4cnccn4)[nH]c3c2)cc1,GI50,HL-60(TB) leukemia,3.67 µM
same,TGI,HL-60(TB) leukemia,15.7 µM
same,GI50,SW-620 colon,2.37 µM
same,TGI,SW-620 colon,14.4 µM
same,GI50,M14 melanoma,2.42 µM
same,TGI,M14 melanoma,17.6 µM
same,GI50,UACC-62 melanoma,1.11 µM
same,TGI,UACC-62 melanoma,13.2 µM
same,GI50,A498 renal,1.75 µM
same,TGI,A498 renal,5.98 µM
same,GI50,UACC-257 melanoma,10.8 µM
same,TGI,UACC-257 melanoma,26 µM
same,GI50,SNB-19 CNS,3.31 µM
same,TGI,SNB-19 CNS,18.3 µM
same,GI50,HT29 colon,1.79 µM
same,TGI,HT29 colon,12.6 µM
same,GI50,OVCAR-8 ovarian,5.78 µM
same,TGI,OVCAR-8 ovarian,38.8 µM
same,GI50,MDA-MB-231 breast,4.34 µM
same,TGI,MDA-MB-231 breast,17.1 µM
same,GI50,SK-MEL-5 melanoma,1.07 µM
same,TGI,SK-MEL-5 melanoma,6.01 µM
same,GI50,SR leukemia,0.68 µM
same,TGI,SR leukemia,> 100 µM
same,GI50,OVCAR-5 ovarian,5.61 µM
same,TGI,OVCAR-5 ovarian,19 µM
same,GI50,SK-MEL-2 melanoma,4.56 µM
same,TGI,SK-MEL-2 melanoma,19 µM
same,GI50,A549 NSCLC,2.58 µM
same,TGI,A549 NSCLC,16.5 µM
same,GI50,HCC-2998 colon,5.19 µM
same,TGI,HCC-2998 colon,18.9 µM
same,GI50,LOX IMVI melanoma,2.61 µM
same,TGI,LOX IMVI melanoma,15.4 µM
same,GI50,HCT-116 colon,3.17 µM
same,TGI,HCT-116 colon,19.2 µM
same,GI50,MOLT-4 leukemia,5 µM
same,TGI,MOLT-4 leukemia,57.4 µM
same,GI50,HOP-62 NSCLC,2.88 µM
same,TGI,HOP-62 NSCLC,15.8 µM
same,GI50,BT-549 breast,6.15 µM
same,TGI,BT-549 breast,22.3 µM
same,GI50,NCI-H460 lung,2.59 µM
same,TGI,NCI-H460 lung,11 µM
same,GI50,RXF 393 renal,1.41 µM
same,TGI,RXF 393 renal,4.28 µM
same,GI50,COLO 205 colon,4.1 µM
same,TGI,COLO 205 colon,20.9 µM
same,GI50,T-47D breast,4.37 µM
same,TGI,T-47D breast,23.7 µM
same,GI50,KM12 colon,2.16 µM
same,TGI,KM12 colon,13.9 µM
same,GI50,SNB-75 CNS,1.75 µM
same,TGI,SNB-75 CNS,6.49 µM
same,GI50,ACHN renal,2.21 µM
same,TGI,ACHN renal,7.63 µM
same,GI50,HCT-15 colon,0.774 µM
same,TGI,HCT-15 colon,14.6 µM
same,GI50,786-0 renal,3.35 µM
same,TGI,786-0 renal,14.8 µM
same,GI50,MCF7 breast,0.715 µM
same,TGI,MCF7 breast,13.4 µM
same,GI50,MALME-3M melanoma,1.06 µM
same,TGI,MALME-3M melanoma,13.1 µM
same,GI50,SK-MEL-28 melanoma,3.57 µM
same,TGI,SK-MEL-28 melanoma,17.5 µM
same,GI50,RPMI-8226 leukemia,4.51 µM
same,TGI,RPMI-8226 leukemia,> 100 µM
same,GI50,TK-10 renal,8.84 µM
same,TGI,TK-10 renal,23.4 µM
same,GI50,NCI-H226 lung,2.27 µM
same,TGI,NCI-H226 lung,8.19 µM
same,GI50,SN12C renal,3.85 µM
same,TGI,SN12C renal,15.9 µM
same,GI50,MDA-MB-435,0.346 µM
same,TGI,MDA-MB-435,1.53 µM
same,GI50,NCI-H522 lung,1.64 µM
same,TGI,NCI-H522 lung,13.6 µM
same,GI50,CAKI-1 renal,4.64 µM
same,TGI,CAKI-1 renal,17.5 µM
same,GI50,UO-31 renal,2.08 µM
same,TGI,UO-31 renal,10.7 µM
same,GI50,K-562 leukemia,2.38 µM
same,TGI,K-562 leukemia,> 100 µM
same,GI50,NCI-H23 lung,3.19 µM
same,TGI,NCI-H23 lung,15.4 µM
same,GI50,OVCAR-3 ovarian,0.654 µM
same,TGI,OVCAR-3 ovarian,3.03 µM
same,GI50,OVCAR-4 ovarian,5.37 µM
same,TGI,OVCAR-4 ovarian,19.3 µM
same,GI50,PC-3 prostate,1.65 µM
same,TGI,PC-3 prostate,10.6 µM
same,GI50,HS 578T breast,2.66 µM
same,TGI,HS 578T breast,13.2 µM
same,GI50,SF-268 CNS,4.29 µM
same,TGI,SF-268 CNS,19.2 µM
same,GI50,U251 CNS,3.96 µM
same,TGI,U251 CNS,19.6 µM
same,GI50,NCI/ADR-RES ovarian,1.92 µM
same,TGI,NCI/ADR-RES ovarian,8.59 µM
same,GI50,SF-539 CNS,1.95 µM
same,TGI,SF-539 CNS,4.96 µM
same,GI50,DU-145 prostate,3.17 µM
same,TGI,DU-145 prostate,11.5 µM
same,GI50,HOP-92 NSCLC,1.5 µM
same,TGI,HOP-92 NSCLC,5.92 µM
same,GI50,EKVX NSCLC,5.01 µM
same,TGI,EKVX NSCLC,18.3 µM
same,GI50,SF-295 CNS,0.743 µM
same,TGI,SF-295 CNS,5.09 µM
same,GI50,CCRF-CEM leukemia,3.2 µM
same,TGI,CCRF-CEM leukemia,> 100 µM
same,GI50,IGROV1 ovarian,1.49 µM
same,TGI,IGROV1 ovarian,13.9 µM
